The structures appear in SMILES notation. Like-named read-outs stand apart in the source and are kept apart here.

Results on one compound are retold here after US20050222267A1, “Solution based methacholine formulations” (priority 2004, published 2005).

A short description of data set [1]: Terminal steam sterilisation (Example 3): recovery (product potency). It is filed as physicochemical. To be noted: 20 L batches at 16 mg/ml and 0.25 mg/ml without buffer; conventional terminal steam sterilisation. As for the experimental part: The influence of terminal steam sterilisation on the chemical properties of the methacholine drug product was determined, specifically in terms of the influence of heat on the product potency and impurity levels within the formulations.
[…] A formulation having a relatively high concentration of methacholine was used so that any changes in chemical properties were readily apparent.
The procedure described below was used for performing the high pressure liquid chromatography (HPLC) assay analysis of methacholine chloride in solution.

For data set [2] the following is noted: cited from earlier work.
For data set [3] the following is noted: cited from earlier work. The source holds these as a separate data set.

Regarding `CC(=O)OC(C)C[N+](C)(C)C` (centres unmarked) [methacholine, methacholine chloride], the “stability to terminal steam sterilisation” value in data set [1] is “did not withstand the high temperatures”. In data set [2] (pH of the solution above 6), the decomposition by hydrolysis result is reported as “rapidly decompose”. Further, the “time stable in solution” value in data set [2] (solutions of >0.3 mg/ml, stored at 4° C.) is recorded as “at least five”. Further, the “pH of the saline solution” value is listed as 3.9 in data set [3] (methacholine 0.39 mg/ml in saline) and 2.7 in data set [3] (methacholine 50 mg/ml in saline).
